According to patent US20260125378A2, “Heterocyclic Compounds” (BeOne Medicines I GmbH, priority 2023, published 2026):

Experiments:
[1] = molecular target: T1, Full length DGKζ (in-house protein M1-V929) (Homo sapiens, UniProt Q13574); assay: Biochemical DGK IC50 assay (ADP-Glo, lipid micelle substrate), DGKζ; details: 1 hour preincubation, 1 hour reaction, room temperature
T1 construct: His (N); TEV site (N); made in house; host or cells: Sf9 insect cells (Bac-to-Bac baculovirus)
Procedure, shortened: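 Enzyme: full-length human DGKζ M1-V929, produced in baculovirus-infected Sf9 cells; substrate DAG/PS micelles. Buffer 50 mM HEPES, 10 mM MgCl2, 0.01 mM CaCl2, 0.1 mM Na3VO4.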

[2] = molecular target: T2, Full length DGKα (D21-10BG, SignalChem) (Homo sapiens, UniProt P23743); assay: Biochemical DGK IC50 assay (ADP-Glo, lipid micelle substrate), DGKα; details: 1 hour preincubation, 1 hour reaction, room temperature
T2 construct: Full length DGKα (D21-10BG, SignalChem); purchased SignalChem D21-10BG
Procedure, shortened: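 ADP-Glo luminescence quantified ADP produced after a 1 h room-temperature reaction of full-length DGKα on DAG/PS micelles, in HEPES buffer containing MgCl2, CaCl2, vanadate, BSA and Tween-20. IC50 values derive from activity inhibition over a compound concentration series.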

T1 sequence (Q13574 1-929 isoform Q13574-4): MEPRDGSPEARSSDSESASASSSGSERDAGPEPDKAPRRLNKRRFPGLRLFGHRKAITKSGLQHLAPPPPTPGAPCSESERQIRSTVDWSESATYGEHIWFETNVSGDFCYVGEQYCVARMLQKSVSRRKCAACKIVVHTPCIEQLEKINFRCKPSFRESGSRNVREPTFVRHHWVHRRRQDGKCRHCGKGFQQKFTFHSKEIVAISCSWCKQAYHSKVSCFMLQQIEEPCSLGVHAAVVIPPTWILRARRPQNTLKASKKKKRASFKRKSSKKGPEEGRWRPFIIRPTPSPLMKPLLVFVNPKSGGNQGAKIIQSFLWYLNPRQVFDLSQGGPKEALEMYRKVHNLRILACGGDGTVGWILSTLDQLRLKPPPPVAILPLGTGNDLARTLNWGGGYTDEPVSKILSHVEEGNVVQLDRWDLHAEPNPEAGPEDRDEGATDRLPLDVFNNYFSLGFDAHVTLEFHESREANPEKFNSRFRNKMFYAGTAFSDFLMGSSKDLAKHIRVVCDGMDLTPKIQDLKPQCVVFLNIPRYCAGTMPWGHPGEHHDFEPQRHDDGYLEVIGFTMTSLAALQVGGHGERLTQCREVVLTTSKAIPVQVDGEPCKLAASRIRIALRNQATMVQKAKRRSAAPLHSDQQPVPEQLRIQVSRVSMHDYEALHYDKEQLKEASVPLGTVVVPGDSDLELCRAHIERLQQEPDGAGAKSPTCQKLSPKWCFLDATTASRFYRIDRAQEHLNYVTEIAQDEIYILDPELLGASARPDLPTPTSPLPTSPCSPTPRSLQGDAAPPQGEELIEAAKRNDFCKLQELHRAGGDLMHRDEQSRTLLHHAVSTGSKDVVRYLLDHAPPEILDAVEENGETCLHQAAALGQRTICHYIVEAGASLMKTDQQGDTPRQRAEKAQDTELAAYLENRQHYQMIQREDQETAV
T2 sequence (P23743 whole entry): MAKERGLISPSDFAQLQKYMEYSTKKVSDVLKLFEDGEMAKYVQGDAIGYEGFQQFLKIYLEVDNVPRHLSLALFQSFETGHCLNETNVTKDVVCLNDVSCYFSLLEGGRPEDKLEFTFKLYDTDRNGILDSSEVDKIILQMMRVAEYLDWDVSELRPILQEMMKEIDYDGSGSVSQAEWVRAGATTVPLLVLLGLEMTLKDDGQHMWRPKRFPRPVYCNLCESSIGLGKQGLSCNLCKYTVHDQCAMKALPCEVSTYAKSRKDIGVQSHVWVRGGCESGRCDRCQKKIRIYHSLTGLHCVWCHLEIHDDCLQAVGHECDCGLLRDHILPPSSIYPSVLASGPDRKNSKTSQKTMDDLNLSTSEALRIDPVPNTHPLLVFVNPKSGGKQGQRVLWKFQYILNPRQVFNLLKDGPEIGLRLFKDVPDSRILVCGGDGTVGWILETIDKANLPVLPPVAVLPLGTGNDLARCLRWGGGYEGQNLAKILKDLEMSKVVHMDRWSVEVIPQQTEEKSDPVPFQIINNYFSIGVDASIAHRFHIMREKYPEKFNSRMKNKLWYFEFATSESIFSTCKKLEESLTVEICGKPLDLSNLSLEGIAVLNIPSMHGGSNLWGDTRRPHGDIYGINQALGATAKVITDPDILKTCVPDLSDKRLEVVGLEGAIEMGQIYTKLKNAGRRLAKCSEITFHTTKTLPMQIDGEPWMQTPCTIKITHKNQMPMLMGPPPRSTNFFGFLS

| SMILES | IC50 [1] [nM] | IC50 [2] [nM] |
| --- | --- | --- |
| CCn1c(CC#N)nc2c(N3C[C@@H](C)N(C(C)c4cccc(OC(C)C)c4)C[C@@H]3C)nc(=O)n(C)c21 (stereo partly drawn) [Compound A43, 2-(9-ethyl-6-((2S,5R)-4-(1-(3-isopropoxyphenyl)ethyl)-2,5-dimethylpiperazin-1-yl)-3-methyl-2-oxo-3,9-dihydro-2H-purin-8-yl)acetonitrile] | 79 | 101000 |
| CC(c1ccc(F)cc1C(F)(F)F)N1C[C@H](C)N(c2nc(=O)n(C)c3c2nc(CC#N)n3C)C[C@H]1C (single isomer, unassigned) [Compound A33b] | 3 | > 10000 |
| CCn1c(CC#N)nc2c(N3C[C@@H](C)N(C(C)c4cccc(C(C)C)c4)C[C@@H]3C)nc(=O)n(C)c21 (mixture of isomers) [Compound A108, 2-(9-ethyl-6-((2S,5R)-4-(1-(3-isopropylphenyl)ethyl)-2,5-dimethylpiperazin-1-yl)-3-methyl-2-oxo-3,9-dihydro-2H-purin-8-yl)acetonitrile] | 32 | 95100 |
| CCn1c(CC#N)nc2c(N3C[C@@H](C)N(C(C)c4ccc(C)c(C(F)(F)F)c4)C[C@@H]3C)nc(=O)n(C)c21 (stereo partly drawn) [Compound A115, 2-(6-((2S,5R)-2,5-dimethyl-4-(1-(4-methyl-3-(trifluoromethyl)phenyl)ethyl)piperazin-1-yl)-9-ethyl-3-methyl-2-oxo-3,9-dihydro-2H-purin-8-yl)acetonitrile] | 19 | > 150000 |
| CCn1c(CC#N)nc2c(N3C[C@@H](C)N(C(C)c4ccc5c(n4)OC(C)(C)CO5)C[C@@H]3C)c(F)c(=O)n(C)c21 (stereo partly drawn) [Compound A21, 2-(7-((2S,5R)-4-(1-(3,3-dimethyl-2,3-dihydro-[1,4]dioxino[2,3-b]pyridin-6-yl)ethyl)-2,5-dimethylpiperazin-1-yl)-3-ethyl-6-fluoro-4-methyl-5-oxo-4,5-dihydro-3H-imidazo[4,5-b]pyridin-2-yl)acetonitrile] | 61 | > 150000 |
| CCn1c(CC#N)nc2c(N3C[C@@H](C)N(C(C)c4ccc5c(c4Cl)OC(C)(C)O5)C[C@@H]3C)nc(=O)n(C)c21 (single isomer, unassigned) [Compound A172a] | 170 | 132000 |
| CCn1c(CC#N)nc2c(N3C[C@@H](C)N(C(C)c4cc5c(cc4Cl)OC(C)(C)O5)C[C@@H]3C)nc(=O)n(C)c21 (stereo partly drawn) [Compound A170, 2-(6-((2S,5R)-4-(1-(6-chloro-2,2-dimethylbenzo[d][1,3]dioxol-5-yl)ethyl)-2,5-dimethylpiperazin-1-yl)-9-ethyl-3-methyl-2-oxo-3,9-dihydro-2H-purin-8-yl)acetonitrile] | 1180 | > 150000 |
| CC[C@@H]1CN(c2nc(=O)n(CC)c3c2nc(CC#N)n3C)[C@@H](C)CN1C(C)c1ccc2c(c1)OC(C)(C)CO2 (single isomer, unassigned) [Compound A66a] | 217 | 15800 |
| COc1cc(F)ccc1C(C)N1C[C@H](C)N(c2cc(=O)n(C)c3c2nc(CC#N)n3C)C[C@H]1C (single isomer, unassigned) [Compound A4a] | 566 | > 10000 |
| CC[C@@H]1CN(c2nc(=O)n(C)c3c2nc(CC#N)n3CC)[C@@H](C)CN1C(C)c1ccc2c(n1)OC(C)(C)CO2 (single isomer, unassigned) [Compound A158a] | 8 | 61900 |
| C=C(C)c1cc(C(C)N2C[C@H](C)N(c3nc(=O)n(C)c4c3nc(CC#N)n4CC)C[C@H]2C)ccc1F (stereo partly drawn) [Compound A135, 2-(9-ethyl-6-((2S,5R)-4-(1-(4-fluoro-3-(prop-1-en-2-yl)phenyl)ethyl)-2,5-dimethylpiperazin-1-yl)-3-methyl-2-oxo-3,9-dihydro-2H-purin-8-yl)acetonitrile] | 14 | > 150000 |
| CC(c1ccc2nccnc2c1)N1C[C@H](C)N(c2cc(=O)n(C)c3sc(CC#N)nc23)C[C@H]1C (mixture of isomers) [Compound A194, 2-(7-((2S,5R)-2,5-dimethyl-4-(1-(quinoxalin-6-yl)ethyl)piperazin-1-yl)-4-methyl-5-oxo-4,5-dihydrothiazolo[5,4-b]pyridin-2-yl)acetonitrile] | 7 | 4080 |
| CC(OC(F)F)c1cc(F)ccc1C(C)N1C[C@H](C)N(c2nc(=O)n(C)c3c2nc(CC#N)n3C)C[C@H]1C (single isomer, unassigned) [Compound A29b] | 4 | 136000 |
| CC(c1cc2ccccc2cn1)N1C[C@H](C)N(c2nc(=O)n(C)c3c2nc(CC#N)n3C)C[C@H]1C (stereo partly drawn) [Compound A154, 2-(6-((2S,5R)-4-(1-(isoquinolin-3-yl)ethyl)-2,5-dimethylpiperazin-1-yl)-3,9-dimethyl-2-oxo-3,9-dihydro-2H-purin-8-yl)acetonitrile] | 178 | 2430 |
| CCn1c(CC#N)nc2c(N3C[C@@H](C)N(C(C)c4ccc5c(c4)OC(C)(C)CO5)C[C@@H]3C)nc(=O)n(C)c21 (single isomer, unassigned) [Compound A60a] | 3.3 | 72500 |
| CCn1c(CC#N)nc2c(N3C[C@@H](C)N(C(C)c4ccc5c(c4)OC(F)(F)O5)C[C@@H]3C)nc(=O)n(C)c21 (stereo partly drawn) [Compound A99, 2-(6-((2S,5R)-4-(1-(2,2-difluorobenzo[d][1,3]dioxol-5-yl)ethyl)-2,5-dimethylpiperazin-1-yl)-9-ethyl-3-methyl-2-oxo-3,9-dihydro-2H-purin-8-yl)acetonitrile] | 128 | 55600 |
| CC[C@H]1CN(C(C)c2ccc3c(c2)OC(C)(C)CO3)[C@H](CC)CN1c1nc(=O)n(C)c2c1nc(CC#N)n2C (single isomer, unassigned) [Compound A64a] | 0.88 | 5280 |
| CCn1c(CC#N)nc2c(N3C[C@@H](C)N(C(C)c4ccc5c(c4F)OC(C)(C)O5)C[C@@H]3C)c(F)c(=O)n(C)c21 (single isomer, unassigned) [Compound A190b] | 41 | 38200 |
| Cc1ccc(C(C)N2C[C@H](C)N(c3c(F)c(=O)n(C)c4c3nc(CC#N)n4C)C[C@H]2C)c(C(F)(F)F)c1 (single isomer, unassigned) [Compound A15a] | 1410 | > 10000 |
| COC[C@H]1CN(C(C)c2ccc(F)cc2C(F)(F)F)[C@H](C)CN1c1nc(=O)n(C)c2c1nc(CC#N)n2C (single isomer, unassigned) [Compound A10a] | 405 | > 10000 |
| CCn1c(CC#N)nc2c(N3C[C@@H](C)N(C(C)c4ccc5c(c4)OC(C)(C)CC5=O)C[C@@H]3C)nc(=O)n(C)c21 (stereo partly drawn) [Compound A81, 2-(6-((2S,5R)-4-(1-(2,2-dimethyl-4-oxochroman-7-yl)ethyl)-2,5-dimethylpiperazin-1-yl)-9-ethyl-3-methyl-2-oxo-3,9-dihydro-2H-purin-8-yl)acetonitrile] | 7 | > 150000 |
| Cc1ccc(C(C)N2C[C@H](C)N(c3cc(=O)n(C)c4c3nc(CC#N)n4C)C[C@H]2C)c(C(F)(F)F)c1 (single isomer, unassigned) [Compound A8b] | 97 | > 150000 |
| CCn1c(CC#N)nc2c(N3C[C@@H](C)N(C(C)c4ccc5ncc(C(F)(F)F)nc5c4)C[C@@H]3C)nc(=O)n(C)c21 (stereo partly drawn) [Compound A54, 2-(6-((2S,5R)-2,5-dimethyl-4-(1-(3-(trifluoromethyl)quinoxalin-6-yl)ethyl)piperazin-1-yl)-9-ethyl-3-methyl-2-oxo-3,9-dihydro-2H-purin-8-yl)acetonitrile] | 37 | > 150000 |
| [2H]C([2H])([2H])n1c(CC#N)nc2c(N3C[C@@H](C)N(C(C)c4ccc(F)cc4C(F)(F)F)C[C@@H]3C)nc(=O)n(C([2H])([2H])[2H])c21 (stereo partly drawn) [Compound A36, 2-(6-((2S,5R)-4-(1-(4-fluoro-2-(trifluoromethyl)phenyl)ethyl)-2,5-dimethylpiperazin-1-yl)-3,9-bis(methyl-d3)-2-oxo-3,9-dihydro-2H-purin-8-yl)acetonitrile] | 17 | 104000 |
| CC(c1ccc2nccnc2c1)N1C[C@H](C)N(c2c(F)c(=O)n(C)c3c2nc(CC#N)n3C)C[C@H]1C (single isomer, unassigned) [Compound A22a] | 26 | > 10000 |
| Cc1cnc2ccc(C(C)N3C[C@H](C)N(c4nc(=O)n(C)c5c4nc(CC#N)n5C)C[C@H]3C)cc2n1 (stereo partly drawn) [Compound A49, 2-(6-((2S,5R)-2,5-dimethyl-4-(1-(3-methylquinoxalin-6-yl)ethyl)piperazin-1-yl)-3,9-dimethyl-2-oxo-3,9-dihydro-2H-purin-8-yl)acetonitrile] | 35 | 123000 |
| CCn1c(CC#N)nc2c(N3C[C@@H](C)N(C(C)c4cccc(C(F)(F)F)c4)C[C@@H]3C)nc(=O)n(C)c21 (single isomer, unassigned) [Compound A42b] | 285 | 118000 |
| Cc1cnc2ccc(C(C)N3C[C@H](C)N(c4c(F)c(=O)n(C)c5c4nc(CC#N)n5C)C[C@H]3C)cc2n1 (single isomer, unassigned) [Compound A23b] | 94 | 16200 |
| CCn1c(CC#N)nc2c(N3C[C@@H](C)N(C(C)c4ccc5ccn(C)c(=O)c5c4)C[C@@H]3C)nc(=O)n(C)c21 (stereo partly drawn) [Compound A92, 2-(6-((2S,5R)-2,5-dimethyl-4-(1-(2-methyl-1-oxo-1,2-dihydroisoquinolin-7-yl)ethyl)piperazin-1-yl)-9-ethyl-3-methyl-2-oxo-3,9-dihydro-2H-purin-8-yl)acetonitrile] | 123 | > 150000 |
